According to patent US20240409585A1, “MACROCYCLIC IMMUNOMODULATORS” (priority 2021, published 2024):
Bridge positions count the residues as written; N and C are the ends. Square brackets hold non-standard residues; d marks the D form. Peptide text beside a SMILES is read from it. * marks the point of attachment. ξ: configuration not given here. Gly(1-amidinopiperidin-4-yl) = N=C(N)N1CCC([C@H](N)C(=O)O)CC1; Phe(4-COOH) = N[C@@H](Cc1ccc(C(=O)O)cc1)C(=O)O; Bip = N[C@@H](Cc1ccc(-c2ccccc2)cc1)C(=O)O; Phe(3-CN) = N#Cc1cccc(C[C@H](N)C(=O)O)c1; Phe(4-CN) = N#Cc1ccc(C[C@H](N)C(=O)O)cc1; Phe(3-Me) = Cc1cccc(C[C@H](N)C(=O)O)c1; NMeY = CN[C@@H](Cc1ccc(O)cc1)C(=O)O; Val(3-OH) = CC(C)(O)[C@H](N)C(=O)O; 4Pal = N[C@@H](Cc1ccncc1)C(=O)O; Cha = N[C@@H](CC1CCCCC1)C(=O)O; Cit = NC(=O)NCCC[C@H](N)C(=O)O; Ile(3ξ) = CCC(C)[C@H](N)C(=O)O; Thr(3ξ) = CC(O)[C@H](N)C(=O)O; Pip = O=C(O)[C@@H]1CCCCN1; Carboxymethyl = O=C(O)C*; NMeA = CN[C@@H](C)C(=O)O; Orn = NCCC[C@H](N)C(=O)O; Dab = NCC[C@H](N)C(=O)O; Dap = NC[C@H](N)C(=O)O

Biological target: T1, PE-labeled human PD-L1-Ig binding to Jurkat cell line over-expressing human PD-1 (Jurkat-PD-1) (Homo sapiens, UniProt Q15116)
T1 construct: expressed in transfected cells; host or cells: Jurkat
Test: Jurkat-PD-1 Cell Binding High-Content Screening Assay (CBA): Method 1
Conditions: Jurkat-hPD-1 cells, PE-labeled PD-L1-Ig 20 nM final; read-out: Jurkat HPDL1 PD1 IC50 (uM) (Method 1)

T1 sequence (Q15116 25-288): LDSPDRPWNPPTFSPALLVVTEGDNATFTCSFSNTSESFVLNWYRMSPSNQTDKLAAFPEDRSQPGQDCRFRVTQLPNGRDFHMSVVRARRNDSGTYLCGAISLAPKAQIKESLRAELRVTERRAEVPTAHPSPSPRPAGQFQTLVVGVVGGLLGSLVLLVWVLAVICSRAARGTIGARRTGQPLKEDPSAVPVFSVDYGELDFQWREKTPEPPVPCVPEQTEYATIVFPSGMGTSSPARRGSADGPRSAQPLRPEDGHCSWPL

Work on `CC(C)C[C@@H]1NC(=O)[C@H](CCN)NC(=O)[C@@H](CC(C)C)NC(=O)[C@H](C)N(C)C(=O)[C@H](Cc2cnc[nH]2)NC(=O)[C@H](Cc2ccc(-c3ccccc3)cc2)NC(=O)[C@H](C(C)C)NC(=O)[C@H](Cc2c[nH]c3ccccc23)NC(=O)[C@H](CC(=O)O)NC(=O)[C@H](Cc2ccc(C#N)cc2)NC(=O)[C@H](CN)NC(=O)CSC[C@@H](C(=O)N[C@@H](C)C(N)=O)NC(=O)[C@H]([C@@H](C)O)NC(=O)[C@H](C(C)C)NC1=O` [Compound 1433] ({CH2CO}-[Dap][Phe(4-CN)]DWV[Bip]H[NMeA][dL][Dab]LVTCA-NH2; thioether N-14) yielded an IC50 of 0.16 µM.
In the case of `CCC(C)[C@@H]1NC(=O)[C@H](Cc2ccc(-c3ccccc3)cc2)NC(=O)[C@H](C(C)C)NC(=O)[C@H](Cc2c[nH]c3ccccc23)NC(=O)[C@H](CC(=O)O)NC(=O)[C@H](Cc2ccc(O)cc2)NC(=O)[C@H](C2CCN(C(=N)N)CC2)NC(=O)CSC[C@@H](C(=O)N[C@@H](C)C(N)=O)NC(=O)[C@H](C(C)O)NC(=O)[C@H](C(C)C)NC(=O)[C@H](CC2CCCCC2)NC(=O)[C@H](CCN)NC(=O)[C@@H](CC(C)C)NC(=O)[C@H](C)N(C)C1=O` (stereo partly drawn) [Compound 2054] ({CH2CO}-[Gly(1-amidinopiperidin-4-yl)]YDWV[Bip][Ile(3ξ)][NMeA][dL][Dab][Cha]V[Thr(3ξ)]CA-NH2; thioether N-14), the IC50 is reported as 0.02 µM.
Work on `CC(C)C[C@@H]1NC(=O)[C@H](CCN)NC(=O)[C@@H](CC(C)C)NC(=O)[C@H](C)N(C)C(=O)[C@H](CCCN)NC(=O)[C@H](Cc2ccc(-c3ccccc3)cc2)NC(=O)[C@H](C(C)C)NC(=O)[C@H](Cc2c[nH]c3ccccc23)NC(=O)[C@H](CC(=O)O)NC(=O)[C@H](Cc2ccc(O)cc2)NC(=O)[C@H](CN)NC(=O)CSC[C@@H](C(=O)N[C@@H](C)C(N)=O)NC(=O)[C@H](C(C)O)NC(=O)[C@H](C(C)C)NC1=O` (stereo partly drawn) [Compound 2080] ({CH2CO}-[Dap]YDWV[Bip][Orn][NMeA][dL][Dab]LV[Thr(3ξ)]CA-NH2; thioether N-14) yielded an IC50 of 0.15 µM.
In the case of `CC(C)C[C@@H]1NC(=O)[C@H](CCN)NC(=O)[C@@H](CC(C)C)NC(=O)[C@H](C)N(C)C(=O)[C@H](CCCNC(N)=O)NC(=O)[C@H](Cc2ccc(-c3ccccc3)cc2)NC(=O)[C@H](C(C)C)NC(=O)[C@H](Cc2c[nH]c3ccccc23)NC(=O)[C@H](CC(=O)O)NC(=O)[C@H](Cc2ccc(O)cc2)NC(=O)[C@H](CC(N)=O)NC(=O)CSC[C@@H](C(=O)N[C@@H](CCC(=O)O)C(N)=O)NC(=O)[C@H](CO)NC(=O)[C@H](C(C)C)NC1=O` [Compound 1233] ({CH2CO}-NYDWV[Bip][Cit][NMeA][dL][Dab]LVSCE-NH2; thioether N-14), the IC50 is reported as 0.05 µM.
Compound `CC(C)C[C@@H]1NC(=O)[C@H](CCN)NC(=O)[C@@H](CC(C)C)NC(=O)[C@H](C)N(C)C(=O)[C@H](Cc2cnc[nH]2)NC(=O)[C@H](Cc2ccc(-c3ccccc3)cc2)NC(=O)[C@H](C(C)C)NC(=O)[C@H](Cc2c[nH]c3ccccc23)NC(=O)[C@H](CC(=O)O)NC(=O)[C@H](Cc2ccc(OCC(=O)O)cc2)NC(=O)[C@H](CC(N)=O)NC(=O)CSC[C@@H](C(=O)N[C@@H](C)C(N)=O)NC(=O)[C@H]([C@@H](C)O)NC(=O)[C@H](C(C)C)NC1=O` [Compound 1388] ({CH2CO}-NY(Carboxymethyl)DWV[Bip]H[NMeA][dL][Dab]LVTCA-NH2; thioether N-14) has an IC50 of 0.06 µM.
`CC[C@H](C)[C@@H]1NC(=O)[C@H](Cc2ccc(-c3ccccc3)cc2)NC(=O)[C@H](C(C)(C)O)NC(=O)[C@H](Cc2cccc(C)c2)NC(=O)[C@H](CC(=O)O)NC(=O)[C@H](Cc2ccc(O)cc2)NC(=O)[C@H](CC(N)=O)NC(=O)CSC[C@@H](C(=O)N[C@H](C)C(N)=O)NC(=O)[C@H](CCC(=O)O)NC(=O)[C@H](C(C)(C)O)NC(=O)[C@H](CC2CCCCC2)NC(=O)[C@H](CCN)NC(=O)[C@@H](CC(C)C)NC(=O)[C@H](C)N(C)C1=O` [Compound 1700] ({CH2CO}-NYD[Phe(3-Me)][Val(3-OH)][Bip]I[NMeA][dL][Dab][Cha][Val(3-OH)]EC[dA]-NH2; thioether N-14) was tested, and the IC50 was 0.18 µM.
In the case of `CC(=O)NCC[C@H](NC(=O)[C@@H]1CSCC(=O)N[C@@H](C(C)O)C(=O)N[C@@H](Cc2ccc(OCC(=O)O)cc2)C(=O)N[C@@H](CC(=O)O)C(=O)N[C@@H](Cc2cccc(C)c2)C(=O)N[C@@H](Cc2ccc(C(=O)O)cc2)C(=O)N[C@@H](Cc2ccc(-c3ccccc3)cc2)C(=O)N[C@@H](Cc2ccc(OCC(=O)O)cc2)C(=O)N(C)[C@@H](C)C(=O)N[C@H](CC(C)C)C(=O)N[C@@H](CCN)C(=O)N[C@@H](CC2CCCCC2)C(=O)N[C@@H](C(C)(C)O)C(=O)N[C@@H](Cc2cnc[nH]2)C(=O)N1)C(N)=O` (stereo partly drawn) [Compound 2161] ({CH2CO}-[Thr(3ξ)]Y(Carboxymethyl)D[Phe(3-Me)][Phe(4-COOH)][Bip]Y(Carboxymethyl)[NMeA][dL][Dab][Cha][Val(3-OH)]HC[Dab](Ac)-NH2; thioether N-14), the IC50 is reported as 0.04 µM.
`CC(C)C[C@@H]1NC(=O)[C@H](CCN)NC(=O)[C@@H](CC(C)C)NC(=O)[C@H](Cc2ccc(O)cc2)N(C)C(=O)[C@H](C(C)C)NC(=O)[C@H](Cc2ccc(-c3ccccc3)cc2)NC(=O)[C@H](C(C)C)NC(=O)[C@H](Cc2c[nH]c3ccccc23)NC(=O)[C@H](CC(=O)O)NC(=O)[C@H](Cc2ccc(O)cc2)NC(=O)[C@H](CC(N)=O)NC(=O)CSC[C@@H](C(=O)N[C@@H](C)C(N)=O)NC(=O)[C@H]([C@@H](C)O)NC(=O)[C@H](C(C)C)NC1=O` [Compound 1364] ({CH2CO}-NYDWV[Bip]V[NMeY][dL][Dab]LVTCA-NH2; thioether N-14) showed an IC50 of 0.01 µM.
`Cc1cccc(C[C@@H]2NC(=O)[C@H](CC(=O)O)NC(=O)[C@H](Cc3ccc(OCC(=O)O)cc3)NC(=O)[C@H](CN)NC(=O)CSC[C@@H](C(N)=O)NC(=O)[C@H](CCC(N)=O)NC(=O)[C@H](C(C)C)NC(=O)[C@H](CC3CCCCC3)NC(=O)[C@H](CCN)NC(=O)[C@@H](CC(C)C)NC(=O)[C@H](C)N(C)C(=O)[C@H](Cc3ccc(OCC(=O)O)cc3)NC(=O)[C@H](Cc3ccc(-c4ccccc4)cc3)NC(=O)[C@H](Cc3ccc(OCC(=O)O)cc3)NC2=O)c1` [Compound 1649] ({CH2CO}-[Dap]Y(Carboxymethyl)D[Phe(3-Me)]Y(Carboxymethyl)[Bip]Y(Carboxymethyl)[NMeA][dL][Dab][Cha]VQC-NH2; thioether N-14) showed an IC50 of 0.1 µM.
For `Cc1cccc(C[C@@H]2NC(=O)[C@H](CC(=O)O)NC(=O)[C@H](Cc3ccc(OCC(=O)O)cc3)NC(=O)[C@H](C(C)O)NC(=O)CSC[C@@H](C(=O)N[C@H](CC(N)=O)C(N)=O)NC(=O)[C@H](CO)NC(=O)[C@H](C(C)(C)O)NC(=O)[C@H](CC3CCCCC3)NC(=O)[C@H](CCN)NC(=O)[C@@H](CC(C)C)NC(=O)[C@H](C)N(C)C(=O)[C@H](Cc3ccc(O)cc3)NC(=O)[C@H](Cc3ccc(-c4ccccc4)cc3)NC(=O)[C@H](Cc3ccc(O)cc3)NC2=O)c1` (stereo partly drawn) [Compound 2142] ({CH2CO}-[Thr(3ξ)]Y(Carboxymethyl)D[Phe(3-Me)]Y[Bip]Y[NMeA][dL][Dab][Cha][Val(3-OH)]SC[dN]-NH2; thioether N-14), the IC50 was 0.18 µM.
`CC(C)C[C@@H]1NC(=O)[C@H](CCN)NC(=O)[C@@H](CC(C)C)NC(=O)[C@H](C)N(C)C(=O)[C@H](Cc2cnc[nH]2)NC(=O)[C@H](Cc2ccc(-c3ccccc3)cc2)NC(=O)[C@H](C(C)C)NC(=O)[C@H](Cc2c[nH]c3ccccc23)NC(=O)[C@H](CC(=O)O)NC(=O)[C@H](Cc2cccc(C#N)c2)NC(=O)[C@H](CC(N)=O)NC(=O)CSC[C@@H](C(=O)N[C@@H](C)C(N)=O)NC(=O)[C@H]([C@@H](C)O)NC(=O)[C@H](C(C)C)NC1=O` [Compound 1375] ({CH2CO}-N[Phe(3-CN)]DWV[Bip]H[NMeA][dL][Dab]LVTCA-NH2; thioether N-14) gave an IC50 of 0.05 µM.
Work on `CC(C)C[C@@H]1NC(=O)[C@H](Cc2c[nH]c3ccccc23)NC(=O)[C@H](CC(=O)O)NC(=O)[C@H](Cc2ccncc2)NC(=O)[C@H](Cc2ccc(OCC(=O)O)cc2)NC(=O)CSC[C@@H](C(=O)N[C@@H](CC(N)=O)C(N)=O)NC(=O)[C@H](CO)NC(=O)[C@H](C(C)C)NC(=O)[C@H](CC2CCCCC2)NC(=O)[C@H](CCN)NC(=O)[C@@H](CC(C)C)NC(=O)[C@H](C)N(C)C(=O)[C@H](C(C)C)NC(=O)[C@H](Cc2ccc(-c3ccccc3)cc2)NC1=O` [Compound 1901] ({CH2CO}-Y(Carboxymethyl)[4Pal]DWL[Bip]V[NMeA][dL][Dab][Cha]VSCN-NH2; thioether N-14) yielded an IC50 of 0.01 µM.
`CCC(C)[C@@H]1NC(=O)[C@H](Cc2ccc(-c3ccccc3)cc2)NC(=O)[C@H](C(C)C)NC(=O)[C@H](Cc2c[nH]c3ccccc23)NC(=O)[C@H](CC(=O)O)NC(=O)[C@H](Cc2ccc(C(=O)O)cc2)NC(=O)[C@H](Cc2ccc(OCC(=O)O)cc2)NC(=O)CSC[C@@H](C(=O)NCC(=O)N[C@@H](CN)C(=O)O)NC(=O)[C@H](C(C)O)NC(=O)[C@H](C(C)C)NC(=O)[C@H](CC2CCCCC2)NC(=O)[C@H](CC(N)=O)NC(=O)[C@@H](CC(C)C)NC(=O)[C@H](C)N(C)C1=O` (stereo partly drawn) [Compound 2005] ({CH2CO}-Y(Carboxymethyl)[Phe(4-COOH)]DWV[Bip][Ile(3ξ)][NMeA][dL]N[Cha]V[Thr(3ξ)]CG[Dap]-OH; thioether N-14) gave an IC50 of 0.02 µM.
`CC(C)C[C@@H]1NC(=O)[C@H](CCN)NC(=O)[C@@H](CC(C)C)NC(=O)[C@@H]2CCCCN2C(=O)[C@H](CCCNC(N)=O)NC(=O)[C@H](Cc2ccc(-c3ccccc3)cc2)NC(=O)[C@H](C(C)C)NC(=O)[C@H](Cc2c[nH]c3ccccc23)NC(=O)[C@H](CC(=O)O)NC(=O)[C@H](Cc2ccc(O)cc2)NC(=O)[C@H](CC(N)=O)NC(=O)CSC[C@@H](C(=O)N[C@@H](C)C(N)=O)NC(=O)[C@H]([C@@H](C)O)NC(=O)[C@H](C(C)C)NC1=O` [Compound 1382] ({CH2CO}-NYDWV[Bip][Cit][Pip][dL][Dab]LVTCA-NH2; thioether N-14) was tested, and the IC50 was 0.08 µM.
`CC[C@H](C)[C@@H]1NC(=O)[C@H](Cc2ccc(-c3ccccc3)cc2)NC(=O)[C@H](C(C)C)NC(=O)[C@H](Cc2c[nH]c3ccccc23)NC(=O)[C@H](CC(=O)O)NC(=O)[C@H](Cc2ccc(C(=O)O)cc2)NC(=O)[C@H](CN)NC(=O)CSC[C@@H](C(=O)N[C@@H](C)C(N)=O)NC(=O)[C@H]([C@@H](C)O)NC(=O)[C@H](C(C)C)NC(=O)[C@H](CC(C)C)NC(=O)[C@H](CCN)NC(=O)[C@@H](CC(C)C)NC(=O)[C@H](C)N(C)C1=O` [Compound 1412] ({CH2CO}-[Dap][Phe(4-COOH)]DWV[Bip]I[NMeA][dL][Dab]LVTCA-NH2; thioether N-14) was tested, and the IC50 was 0.05 µM.
